The record followed here is patent US12139492B2 (Endotarget Inc., priority 2021, dated 2024).

Some results are limits rather than exact numbers.

Assay type in all cases: cell-based
In one test the test system is Mino cells. The experiment in a line: Antiproliferative effect, MTS cell viability assay, Mino cells. The following applies: Homo sapiens, MINO, Mino mantle cell lymphoma cells; read-out: IC50 (anti-proliferation) Mino cells. In short, it runs like this: (§1)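 MTS read-out, A490 of formazan from metabolically active cells; compound 0–10 μM (0, 0.001, 0.01, 0.1, 1, 10 μM), 72 h exposure.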
Background: Tetrazolium dyes change colour on reduction, which living cells bring about.

The next test has as its system JeKo-1 cells. The experiment in a line: Antiproliferative effect, MTS cell viability assay, JeKo-1 cells. The conditions noted are these: Homo sapiens; JeKo-1 mantle cell lymphoma cells; read-out: IC50 (anti-proliferation) JeKO-1 cells. In short, it runs like this: as §1
In a further test the target is BTK (Homo sapiens, UniProt Q06187). Put plainly: BTK degradation, DC50 and Dmax of Table 1 (cell line not given). The following applies: for DC50: concentration giving 50% reduction of BTK expression level. The arrangement: endogenous in cells.
BTK, sequence (Q06187 whole entry): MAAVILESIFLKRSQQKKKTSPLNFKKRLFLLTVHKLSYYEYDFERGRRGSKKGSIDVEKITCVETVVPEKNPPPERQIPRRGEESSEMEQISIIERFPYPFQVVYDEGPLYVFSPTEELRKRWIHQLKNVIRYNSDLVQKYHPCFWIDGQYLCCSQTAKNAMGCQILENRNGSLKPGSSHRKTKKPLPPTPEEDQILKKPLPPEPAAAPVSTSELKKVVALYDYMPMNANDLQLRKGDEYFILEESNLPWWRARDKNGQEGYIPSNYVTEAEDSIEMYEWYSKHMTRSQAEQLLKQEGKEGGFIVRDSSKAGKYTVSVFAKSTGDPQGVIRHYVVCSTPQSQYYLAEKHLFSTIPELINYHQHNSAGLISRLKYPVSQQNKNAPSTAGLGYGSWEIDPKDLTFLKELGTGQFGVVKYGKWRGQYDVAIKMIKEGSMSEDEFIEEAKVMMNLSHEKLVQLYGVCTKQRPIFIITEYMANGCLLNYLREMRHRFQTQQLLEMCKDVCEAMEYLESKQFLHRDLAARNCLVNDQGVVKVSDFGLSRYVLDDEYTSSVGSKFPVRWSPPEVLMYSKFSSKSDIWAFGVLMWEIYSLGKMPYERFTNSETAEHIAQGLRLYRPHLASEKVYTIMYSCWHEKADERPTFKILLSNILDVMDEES

For orientation: Dmax means the largest share of the target that was removed. Read a low Dmax as a partial loss of target. What is called DC50 is the concentration giving 50% degradation. Low readings indicate degradation at low concentration, high ones degradation only at high concentration. Regarding `Nc1ncnc2c1c(-c1ccc(Oc3ccccc3)cc1)nn2[C@@H]1CCCN(C2CCN(C(=O)N3CCN(CCN4CCC(c5ccc6c(c5)CN(C5CCC(=O)NC5=O)C6=O)CC4)CC3)CC2)C1` (stereo partly drawn) [Compound 180, 3-(5-(1-(2-(4-((R)-3-(4-amino-3-(4-phenoxyphenyl)-1H-pyrazolo[3,4-d]pyrimidin-1-yl)-[1,4′-bipiperidine]-1′-carbonyl)piperazin-1-yl)ethyl)piperidin-4-yl)-1-oxoisoindolin-2-yl)piperidine-2,6-dione], the figures for the IC50 with Mino cells and with JeKo-1 cells were 1000 to 10000 nM and over 10000 nM, respectively. This compound also came in with a Dmax at BTK of over 75%. At BTK, this compound displayed a 50% degradation concentration (DC50) of 10 to 50 nM.

As to `Nc1ncnc2c1c(-c1ccc(Oc3ccccc3)cc1)nn2[C@@H]1CCCN(C2CCN(C(=O)N3CCC(CCN4CCN(c5ccc6c(c5)CN(C5CCC(=O)NC5=O)C6=O)CC4)CC3)CC2)C1` (stereo partly drawn) [Compound 182, 3-(5-(4-(2-(1-((R)-3-(4-amino-3-(4-phenoxyphenyl)-1H-pyrazolo[3,4-d]pyrimidin-1-yl)-[1,4′-bipiperidine]-1′-carbonyl)piperidin-4-yl)ethyl)piperazin-1-yl)-1-oxoisoindolin-2-yl)piperidine-2,6-dione], the IC50 with Mino cells and in the test with JeKo-1 cells was 1000 to 10000 nM throughout. On BTK, this compound displayed a Dmax of over 75%. The compound further displayed a DC50 on BTK of 10 to 50 nM.

For the compound `Nc1ncnc2c1c(-c1ccc(Oc3ccccc3)cc1)nn2[C@@H]1CCCN(C2CCN(C(=O)N3CCC(CCN4CCC(c5ccc6c(c5)C(=O)N(C5CCC(=O)NC5=O)C6=O)CC4)CC3)CC2)C1` (stereo partly drawn) [Compound 183, 5-(1-(2-(1-((R)-3-(4-amino-3-(4-phenoxyphenyl)-1H-pyrazolo[3,4-d]pyrimidin-1-yl)-[1,4′-bipiperidine]-1′-carbonyl)piperidin-4-yl)ethyl)piperidin-4-yl)-2-(2,6-dioxopiperidin-3-yl)isoindoline-1,3-dione], the IC50 with Mino cells was 1000 to 10000 nM. In addition, in the test with JeKo-1 cells, the IC50 was over 10000 nM. On BTK, this compound had a Dmax of over 75% and a half-maximal degradation concentration (DC50) of 10 to 50 nM.

With `Nc1ncnc2c1c(-c1ccc(Oc3ccccc3)cc1)nn2[C@@H]1CCCN(C2CCN(C(=O)N3CCC(CCN4CCC(c5ccc6c(c5)CN(C5CCC(=O)NC5=O)C6=O)CC4)CC3)CC2)C1` (stereo partly drawn) [Compound 184, 3-(5-(1-(2-(1-((R)-3-(4-amino-3-(4-phenoxyphenyl)-1H-pyrazolo[3,4-d]pyrimidin-1-yl)-[1,4′-bipiperidine]-1′-carbonyl)piperidin-4-yl)ethyl)piperidin-4-yl)-1-oxoisoindolin-2-yl)piperidine-2,6-dione], the IC50 with Mino cells fell in the range of 1000 to 10000 nM. Besides, the IC50 with JeKo-1 cells was 1000 to 10000 nM. For the same compound, on BTK, the Dmax was over 90% and the 50% degradation concentration (DC50) was in the range of 10 to 50 nM.

As to `Nc1ncnc2c1c(-c1ccc(Oc3ccccc3)cc1)nn2[C@@H]1CCCN(C2CCN(C(=O)N3CCC(CCC4CCN(c5ccc6c(c5)C(=O)N(C5CCC(=O)NC5=O)C6=O)CC4)CC3)CC2)C1` (stereo partly drawn) [Compound 185, 5-(4-(2-(1-((R)-3-(4-amino-3-(4-phenoxyphenyl)-1H-pyrazolo[3,4-d]pyrimidin-1-yl)-[1,4′-bipiperidine]-1′-carbonyl)piperidin-4-yl)ethyl)piperidin-1-yl)-2-(2,6-dioxopiperidin-3-yl)isoindoline-1,3-dione], the IC50 in the test with Mino cells was over 10000 nM. In the test with JeKo-1 cells, the IC50 is over 10000 nM. Further, at BTK, the maximal degradation (Dmax) is over 75% and the 50% degradation concentration (DC50) is 10 to 50 nM.

Take `Nc1ncnc2c1c(-c1ccc(Oc3ccccc3)cc1)nn2[C@@H]1CCCN(C2CCN(C(=O)N3CCC(CCC4CCN(c5ccc6c(c5)CN(C5CCC(=O)NC5=O)C6=O)CC4)CC3)CC2)C1` (stereo partly drawn) [Compound 186, 3-(5-(4-(2-(1-((R)-3-(4-amino-3-(4-phenoxyphenyl)-1H-pyrazolo[3,4-d]pyrimidin-1-yl)-[1,4′-bipiperidine]-1′-carbonyl)piperidin-4-yl)ethyl)piperidin-1-yl)-1-oxoisoindolin-2-yl)piperidine-2,6-dione]: the IC50 in the test on Mino cells fell in the range of 1000 to 10000 nM. Further, the IC50 in the test with JeKo-1 cells was in the range of 1000 to 10000 nM. On BTK, the Dmax was over 75% and the DC50 was in the range of 10 to 50 nM.

On to `Nc1ncnc2c1c(-c1ccc(Oc3ccccc3)cc1)nn2[C@@H]1CCCN(C2CCN(C(=O)N3CCN(CCCN4CCN(c5ccc6c(c5)C(=O)N(C5CCC(=O)NC5=O)C6=O)CC4)CC3)CC2)C1` (stereo partly drawn) [Compound 187, 5-(4-(3-(4-((R)-3-(4-amino-3-(4-phenoxyphenyl)-1H-pyrazolo[3,4-d]pyrimidin-1-yl)-[1,4′-bipiperidine]-1′-carbonyl)piperazin-1-yl)propyl)piperazin-1-yl)-2-(2,6-dioxopiperidin-3-yl)isoindoline-1,3-dione], for which the IC50 in the test with Mino cells lay in the range of 1000 to 10000 nM. In the test on JeKo-1 cells, the IC50 is 1000 to 10000 nM. On BTK, the Dmax was over 75% and the 50% degradation concentration (DC50) was over 50 nM.

On to `Nc1ncnc2c1c(-c1ccc(Oc3ccccc3)cc1)nn2[C@@H]1CCCN(C2CCN(C(=O)N3CCN(CCCN4CCN(c5ccc6c(c5)CN(C5CCC(=O)NC5=O)C6=O)CC4)CC3)CC2)C1` (stereo partly drawn) [Compound 188, 3-(5-(4-(3-(4-((R)-3-(4-amino-3-(4-phenoxyphenyl)-1H-pyrazolo[3,4-d]pyrimidin-1-yl)-[1,4′-bipiperidine]-1′-carbonyl)piperazin-1-yl)propyl)piperazin-1-yl)-1-oxoisoindolin-2-yl)piperidine-2,6-dione], for which the IC50 in the test with Mino cells lay in the range of 1000 to 10000 nM. The IC50 with JeKo-1 cells lay within 1000 to 10000 nM. Also, on BTK, the maximal degradation (Dmax) is over 75% and the 50% degradation concentration (DC50) is over 50 nM.

As for `Nc1ncnc2c1c(-c1ccc(Oc3ccccc3)cc1)nn2[C@@H]1CCCN(C2CCN(C(=O)N3CCN(CCCC4CCN(c5ccc6c(c5)C(=O)N(C5CCC(=O)NC5=O)C6=O)CC4)CC3)CC2)C1` (stereo partly drawn) [Compound 189, 5-(4-(3-(4-((R)-3-(4-amino-3-(4-phenoxyphenyl)-1H-pyrazolo[3,4-d]pyrimidin-1-yl)-[1,4′-bipiperidine]-1′-carbonyl)piperazin-1-yl)propyl)piperidin-1-yl)-2-(2,6-dioxopiperidin-3-yl)isoindoline-1,3-dione], the IC50 in the test with Mino cells was 1000 to 10000 nM. The IC50 in the test with JeKo-1 cells is over 10000 nM. At BTK, this compound had a Dmax of over 75% and a 50% degradation concentration (DC50) of over 50 nM.

On to `Nc1ncnc2c1c(-c1ccc(Oc3ccccc3)cc1)nn2[C@@H]1CCCN(C2CCN(C(=O)N3CCN(CCCC4CCN(c5ccc6c(c5)CN(C5CCC(=O)NC5=O)C6=O)CC4)CC3)CC2)C1` (stereo partly drawn) [Compound 190, 3-(5-(4-(3-(4-((R)-3-(4-amino-3-(4-phenoxyphenyl)-1H-pyrazolo[3,4-d]pyrimidin-1-yl)-[1,4′-bipiperidine]-1′-carbonyl)piperazin-1-yl)propyl)piperidin-1-yl)-1-oxoisoindolin-2-yl)piperidine-2,6-dione], for which the IC50 in the test with Mino cells and in the test with JeKo-1 cells was over 10000 nM each time. Besides, the Dmax on BTK is over 50%. Besides, at BTK, the 50% degradation concentration (DC50) is over 50 nM.

As to `Nc1ncnc2c1c(-c1ccc(Oc3ccccc3)cc1)nn2[C@@H]1CCCN(C2CCN(C(=O)N3CCN(CCCN4CCC(c5ccc6c(c5)C(=O)N(C5CCC(=O)NC5=O)C6=O)CC4)CC3)CC2)C1` (stereo partly drawn) [Compound 191, 5-(1-(3-(4-((R)-3-(4-amino-3-(4-phenoxyphenyl)-1H-pyrazolo[3,4-d]pyrimidin-1-yl)-[1,4′-bipiperidine]-1′-carbonyl)piperazin-1-yl)propyl)piperidin-4-yl)-2-(2,6-dioxopiperidin-3-yl)isoindoline-1,3-dione], in the test with Mino cells, the IC50 was over 10000 nM. For the same compound, the IC50 with JeKo-1 cells was over 10000 nM. On BTK, this compound displayed a Dmax of over 75% and a DC50 of 10 to 50 nM.

For the compound `Nc1ncnc2c1c(-c1ccc(Oc3ccccc3)cc1)nn2[C@@H]1CCCN(C2CCN(C(=O)N3CCN(CCCN4CCC(c5ccc6c(c5)CN(C5CCC(=O)NC5=O)C6=O)CC4)CC3)CC2)C1` (stereo partly drawn) [Compound 192, 3-(5-(1-(3-(4-((R)-3-(4-amino-3-(4-phenoxyphenyl)-1H-pyrazolo[3,4-d]pyrimidin-1-yl)-[1,4′-bipiperidine]-1′-carbonyl)piperazin-1-yl)propyl)piperidin-4-yl)-1-oxoisoindolin-2-yl)piperidine-2,6-dione], the IC50 in the test with Mino cells and in the test with JeKo-1 cells was over 10000 nM each time. The compound also gave a Dmax on BTK of over 75%. Moreover, the DC50 on BTK was 10 to 50 nM.

Consider `Nc1ncnc2c1c(-c1ccc(Oc3ccccc3)cc1)nn2[C@@H]1CCCN(C2CCN(C(=O)N3CCC(CCCN4CCN(c5ccc6c(c5)C(=O)N(C5CCC(=O)NC5=O)C6=O)CC4)CC3)CC2)C1` (stereo partly drawn) [Compound 193, 5-(4-(3-(1-((R)-3-(4-amino-3-(4-phenoxyphenyl)-1H-pyrazolo[3,4-d]pyrimidin-1-yl)-[1,4′-bipiperidine]-1′-carbonyl)piperidin-4-yl)propyl)piperazin-1-yl)-2-(2,6-dioxopiperidin-3-yl)isoindoline-1,3-dione], for which the IC50 in the test with Mino cells fell in the range of 1000 to 10000 nM. The IC50 in the test on JeKo-1 cells was over 10000 nM. Further, at BTK, the Dmax is over 50% and the DC50 is 10 to 50 nM.

For the compound `Nc1ncnc2c1c(-c1ccc(Oc3ccccc3)cc1)nn2[C@@H]1CCCN(C2CCN(C(=O)N3CCC(CCCN4CCN(c5ccc6c(c5)CN(C5CCC(=O)NC5=O)C6=O)CC4)CC3)CC2)C1` (stereo partly drawn) [Compound 194, 3-(5-(4-(3-(1-((R)-3-(4-amino-3-(4-phenoxyphenyl)-1H-pyrazolo[3,4-d]pyrimidin-1-yl)-[1,4′-bipiperidine]-1′-carbonyl)piperidin-4-yl)propyl)piperazin-1-yl)-1-oxoisoindolin-2-yl)piperidine-2,6-dione], the IC50 with Mino cells lay in the range of 1000 to 10000 nM. In addition, the IC50 in the test on JeKo-1 cells lay within 1000 to 10000 nM. At BTK, the maximal degradation (Dmax) is over 75% and the 50% degradation concentration (DC50) lay within 10 to 50 nM.
